pIC50: −log10 of the molar value. Like-named read-outs stand apart in the source and are kept apart here.

This assay concerns the target HCV NS3 protease (UniProt P26663). It counts as biochemical, HCV genotype 1b. Further details: rows headed: IC50 (μM); IC50 (μM). As to the method: Recombinant HCV NS3 Protease/NS4A Cofactor Peptide Radiometric Assay
The enzyme was cloned, expressed and prepared according to the protocol described in Example 36. The enzyme was stored at −80° C., thawed on ice and diluted just prior to use in the assay buffer containing the NS4A cofactor peptide.
The substrate used for the NS3 protease/NS4A cofactor peptide radiometric assay, DDIVPC-SMSYTW, is cleaved between the cysteine and the serine residues by the enzyme. The sequence DDIVPC-SMSYTW corresponds to the NS5A/NS5B natural cleavage site in which the cysteine residue in P2 has been substituted for a proline. […] (molar ratio enzyme:cofactor 1:100) in the absence or presence of inhibitors. The separation of substrate from products is performed by adding avidin-coated agarose beads to the assay mixture followed by filtration. The amount of SMS[^125I-Y]TW product found in the filtrate allows for the calculation of the percentage of substrate conversion and of the percentage of inhibition.
The enzymatic reaction was initiated by the addition of the enzyme/NS4A peptide solution and the assay mixture was incubated for 40 min at 23° C. under gentle agitation. Ten (10) μL of 0.5N NaOH were added and 10 μL 1 M MES, pH 5.8 were added to quench the enzymatic reaction.
A non-linear curve fit with the Hill model was applied to the inhibition-concentration data, and the 50% effective concentration (IC50) was calculated by the use of SAS software (Statistical Software System; SAS Institute, Inc. Cary, N.C.). […]
The NS2-NS5B-3′ non coding region was cloned by RT-PCR into the pCR®3 vector (Invitrogen) using RNA extracted from the serum of an HCV genotype 1b infected individual (provided by Dr. Bernard Willems, Hôpital St-Luc, Montréal, Québec, Canada). The NS3-NS4A DNA region was then subcloned by PCR into the pFastBac™ HTa baculovirus expression vector (Gibco/BRL). The vector sequence includes a region encoding a 28-residue N-terminal sequence which contains a hexahistidine tag. The Bac-to-Bac™ baculovirus expression system (Gibco/BRL) was used to produce the recombinant baculovirus. The full length mature NS3 and NS4A heterodimer protein (His-NS3-NS4AFL) was expressed by infecting 10^6 Sf21 cells/mL with the recombinant baculovirus at a multiplicity of infection of 0.1-0.2 at 27° C. The infected culture was harvested 48 to 64 h later by centrifugation at 4° C. The cell pellet was homogenized in 50 mM NaPO4, pH 7.5, 40% glycerol (w/v), 2 mM β-mercaptoethanol, in presence of a cocktail of protease inhibitors. His-NS3-NS4AFL was then extracted from the cell lysate with 1.5% NP-40, 0.5% Triton X-100, 0.5M NaCl, and a DNase treatment. After ultracentrifugation, the soluble extract was diluted 4-fold and bound on a Pharmacia Hi-Trap Ni-chelating column. […] The His-NS3-NS4AFL was stored at −80° C. in 50 mM sodium phosphate, pH 7.5, 10% (w/v) glycerol, 0.5 M NaCl, 0.25 M imidazole, 0.1% NP-40. It was thawed on ice and diluted just prior to use. The protease activity of His-NS3-NS4AFL was assayed in 50 mM Tris-HCl, pH 8.0, 0.25 M sodium citrate, 0.01% (w/v) n-dodecyl-β-D-maltoside, 1 mM TCEP. Five (5) μM of the internally quenched substrate anthranilyl-DDIVPAbu[C(O)—O]-AMY(3-NO2)TW-OH in presence of various concentrations of inhibitor were incubated with 1.5 nM of His-NS3-NS4AFL for 45 min at 23° C. […] The reaction was terminated with the addition of 1M MES, pH 5.8. Fluorescence of the N-terminal product was monitored on a Perkin-Elmer LS-50B fluorometer equipped with a 96-well plate reader (excitation wavelength: 325 nm; emission wavelength: 423 nm).
The following tables list compounds representative of the invention.

Chain of HCV NS3 protease (P26663 1027-1206, other chains not shown): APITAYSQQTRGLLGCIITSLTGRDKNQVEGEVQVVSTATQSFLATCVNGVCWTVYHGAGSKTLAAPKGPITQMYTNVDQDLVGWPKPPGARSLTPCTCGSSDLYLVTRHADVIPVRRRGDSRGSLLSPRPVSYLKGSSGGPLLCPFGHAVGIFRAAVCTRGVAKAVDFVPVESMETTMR

As a reminder, the pIC50 is −log10 of the IC50, conventionally taken in molar units. Read a low pIC50 as a large IC50. In turn, `C=CC1CC1(NC(=O)C1CC(Oc2cc(-c3ccccc3)nc3cc(Br)ccc23)CN1C(=O)C(NC(=O)OC(C)(C)C)C(C)(C)C)C(=O)O` (stereo not shown) [compound 626] had a pIC50 (Table 6) of 6.62. Take `C=CC1CC1(NC(=O)C1CC(Oc2cc(-c3ccccc3)nc3cc(F)ccc23)CN1C(=O)C(NC(=O)OC(C)(C)C)C(C)(C)C)C(=O)O` (stereo not shown) [compound 627]: the pIC50 (Table 6) is 6.48.

The compound `C=CC1CC1(NC(=O)C1CC(Oc2cc(-c3csc(NC(C)=O)n3)nc3cc(N(C)C)ccc23)CN1C(=O)C(NC(=O)OC(C)(C)C)C(C)(C)C)C(=O)O` (stereo not shown) [compound 628] showed a pIC50 (Table 6) of 7.96. For the setting “Table 6”, `C=CC1CC1(NC(=O)C1CC(Oc2cc(-c3csc(NC(C)C)n3)nc3cc(N(C)C)ccc23)CN1C(=O)C(NC(=O)OC(C)(C)C)C(C)(C)C)C(=O)O` (stereo not shown) [compound 629] showed a pIC50 of 7.70.

Consider `C=CC1CC1(NC(=O)C1CC(Oc2cc(-c3csc(NC(C)=O)n3)nc3cc(N(CC)CC)ccc23)CN1C(=O)C(NC(=O)OC(C)(C)C)C(C)(C)C)C(=O)O` (stereo not shown) [compound 630], for which the pIC50 (Table 6) is 7.37.

`C=CC1CC1(NC(=O)C1CC(Oc2cc(-c3cnn(C)c3)nc3cc(OC)ccc23)CN1C(=O)C(NC(=O)OC(C)(C)C)C(C)(C)C)C(=O)O` (stereo not shown) [compound 701] showed a negative-log IC50 (pIC50) (Table 7) of 7.55.

The compound `C=CC1CC1(NC(=O)C1CC(Oc2cc(C=Cc3ccccc3)nc3cc(OC)ccc23)CN1C(=O)C(NC(=O)OC(C)(C)C)C(C)(C)C)C(=O)O` (stereo not shown) [compound 702] showed a pIC50 (Table 7) of 7.00. In turn, `C=CC1CC1(NC(=O)C1CC(Oc2cc(OCC)nc3cc(OC)ccc23)CN1C(=O)C(NC(=O)OC(C)(C)C)C(C)(C)C)C(=O)O` (stereo not shown) [compound 703] gave a pIC50 (Table 7) of 7.33. Same read-out and setting: under `C=CC1CC1(NC(=O)C1CC(Oc2cc(N3CCc4ccccc43)nc3cc(OC)ccc23)CN1C(=O)C(NC(=O)OC(C)(C)C)C(C)(C)C)C(=O)O` (stereo not shown) [compound 704] stands 6.62. Regarding `C=CC1CC1(NC(=O)C1CC(Oc2cc(N3CCOCC3)nc3cc(OC)ccc23)CN1C(=O)C(NC(=O)OC(C)(C)C)C(C)(C)C)C(=O)O` (stereo not shown) [compound 705], for the setting “Table 7”, the pIC50 is 6.89.

For the setting “Table 7”, `C=CC1CC1(NC(=O)C1CC(Oc2cc(-c3cccs3)nc3cc(OC)ccc23)CN1C(=O)C(NC(=O)OC(C)(C)C)C(C)(C)C)C(=O)O` (stereo not shown) [compound 706] showed a pIC50 of 7.49.

On to `C=CC1CC1(NC(=O)C1CC(Oc2cc(-c3nccs3)nc3cc(OC)ccc23)CN1C(=O)C(NC(=O)OC(C)(C)C)C(C)(C)C)C(=O)O` (stereo not shown) [compound 707], for which the pIC50 (Table 7) was 7.64. The same measure, in the same setting: then `C=CC1CC1(NC(=O)C1CC(Oc2cc(N(C)c3ccccc3)nc3cc(OC)ccc23)CN1C(=O)C(NC(=O)OC(C)(C)C)C(C)(C)C)C(=O)O` (stereo not shown) [compound 708], with 6.82; and `C=CC1CC1(NC(=O)C1CC(Oc2cc(-c3csc(N)n3)nc3cc(OC)ccc23)CN1C(=O)C(NC(=O)OC(C)(C)C)C(C)(C)C)C(=O)O` (stereo not shown) [compound 709], with 7.68; and `C=CC1C[C@]1(NC(=O)[C@@H]1C[C@@H](Oc2cc(C(=O)O)nc3cc(OC)ccc23)CN1C(=O)[C@@H](NC(=O)OC(C)(C)C)C(C)(C)C)C(=O)O` (stereo partly shown) [compound 710], with 6.16. As for `C=CC1CC1(NC(=O)C1CC(Oc2cc(-c3csc(C)n3)nc3cc(OC)ccc23)CN1C(=O)C(NC(=O)OC(C)(C)C)C(C)(C)C)C(=O)O` (stereo not shown) [compound 711], the negative logarithm of the IC50 (pIC50) (Table 7) is 7.80. In the case of `C=CC1C[C@]1(NC(=O)[C@@H]1C[C@@H](Oc2cc(N(C)C)nc3cc(OC)ccc23)CN1C(=O)[C@@H](NC(=O)OC(C)(C)C)C(C)(C)C)C(=O)O` (stereo partly shown) [compound 712], the pIC50 (Table 7) was 7.00.

Consider `C=CC1CC1(NC(=O)C1CC(Oc2cc(-c3cscn3)nc3cc(OC)ccc23)CN1C(=O)C(NC(=O)OC(C)(C)C)C(C)(C)C)C(=O)O` (stereo not shown) [compound 713], for which the pIC50 (Table 7) was 7.59. Same read-out and setting: under `C=CC1CC1(NC(=O)C1CC(Oc2cc(-c3csc(CC)n3)nc3cc(OC)ccc23)CN1C(=O)C(NC(=O)OC(C)(C)C)C(C)(C)C)C(=O)O` (stereo not shown) [compound 714] stands 7.92; under `C=CC1CC1(NC(=O)C1CC(Oc2cc(-c3ccccn3)nc3cc(OC)ccc23)CN1C(=O)C(NC(=O)OC(C)(C)C)C(C)(C)C)C(=O)O` (stereo not shown) [compound 715], 7.51. The same measure, in the same setting: then `C=CC1CC1(NC(=O)C1CC(Oc2cc(-c3cccnc3)nc3cc(OC)ccc23)CN1C(=O)C(NC(=O)OC(C)(C)C)C(C)(C)C)C(=O)O` (stereo not shown) [compound 716], with 7.10.

Where the note is “Table 7”, `C=CC1CC1(NC(=O)C1CC(Oc2cc(-c3csc(NC)n3)nc3cc(OC)ccc23)CN1C(=O)C(NC(=O)OC(C)(C)C)C(C)(C)C)C(=O)O` (stereo not shown) [compound 717] had a pIC50 of 7.55. For `C=CC1C[C@]1(NC(=O)[C@@H]1C[C@@H](Oc2cc(N)nc3cc(OC)ccc23)CN1C(=O)[C@@H](NC(=O)OC(C)(C)C)C(C)(C)C)C(=O)O` (stereo partly shown) [compound 718], the negative logarithm of the IC50 (pIC50) (Table 7) was 6.80. For the compound `C=CC1CC1(NC(=O)C1CC(Oc2cc(-c3csc(NC(C)=O)n3)nc3cc(OC)ccc23)CN1C(=O)C(NC(=O)OC(C)(C)C)C(C)(C)C)C(=O)O` (stereo not shown) [compound 719], the pIC50 (Table 7) was 7.74. For the setting “Table 7”, `C=CC1CC1(NC(=O)C1CC(Oc2cc(-c3cnn(C(C)(C)C)c3)nc3cc(OC)ccc23)CN1C(=O)C(NC(=O)OC(C)(C)C)C(C)(C)C)C(=O)O` (stereo not shown) [compound 720] showed a pIC50 of 7.52. On the same count and under the same terms, then `C=CC1CC1(NC(=O)C1CC(Oc2cc(N3CCC(OC)CC3)nc3cc(OC)ccc23)CN1C(=O)C(NC(=O)OC(C)(C)C)C(C)(C)C)C(=O)O` (stereo not shown) [compound 721], with 7.35.

As for `C=CC1CC1(NC(=O)C1CC(Oc2cc(-c3csc(NCC)n3)nc3cc(OC)ccc23)CN1C(=O)C(NC(=O)OC(C)(C)C)C(C)(C)C)C(=O)O` (stereo not shown) [compound 722], the pIC50 (Table 7) is 7.32. In the case of `C=CC1CC1(NC(=O)C1CC(Oc2cc(-c3csc(NC(C)C)n3)nc3cc(OC)ccc23)CN1C(=O)C(NC(=O)OC(C)(C)C)C(C)(C)C)C(=O)O` (stereo not shown) [compound 723], the pIC50 (Table 7) was 7.33. Same read-out and setting: then `C=CC1CC1(NC(=O)C1CC(Oc2cc(N3CCC(C)CC3)nc3cc(OC)ccc23)CN1C(=O)C(NC(=O)OC(C)(C)C)C(C)(C)C)C(=O)O` (stereo not shown) [compound 724], with 7.12; and `C=CC1CC1(NC(=O)C1CC(Oc2cc(-c3ccncn3)nc3cc(OC)ccc23)CN1C(=O)C(NC(=O)OC(C)(C)C)C(C)(C)C)C(=O)O` (stereo not shown) [compound 725], with 7.34. In turn, `C=CC1C[C@]1(NC(=O)[C@@H]1C[C@@H](Oc2cc(C(C)C)nc3cc(OC)ccc23)CN1C(=O)[C@@H](NC(=O)OC(C)(C)C)C(C)(C)C)C(=O)O` (stereo partly shown) [compound 726] showed a pIC50 (Table 7) of 6.60.

Regarding `C=CC1CC1(NC(=O)C1CC(Oc2cc(-c3cccnc3)nc3cc(OC)ccc23)CN1C(=O)C(NC(=O)OC(C)(C)C)C(C)(C)C)C(=O)O` (stereo not shown) [compound 727], the pIC50 (Table 7) was 7.15. In turn, `C=CC1CC1(NC(=O)C1CC(Oc2cc(-c3csc(CS(C)(=O)=O)n3)nc3cc(OC)ccc23)CN1C(=O)C(NC(=O)OC(C)(C)C)C(C)(C)C)C(=O)O` (stereo not shown) [compound 728] gave a pIC50 (Table 7) of 7.66. For the setting “Table 7”, `C=CC1CC1(NC(=O)C1CC(Oc2cc(-c3cnccn3)nc3cc(OC)ccc23)CN1C(=O)C(NC(=O)OC(C)(C)C)C(C)(C)C)C(=O)O` (stereo not shown) [compound 729] gave a pIC50 of 6.70. Consider `C=CC1CC1(NC(=O)C1CC(Oc2cc(OC(C)C)nc3cc(OC)ccc23)CN1C(=O)C(NC(=O)OC(C)(C)C)C(C)(C)C)C(=O)O` (stereo not shown) [compound 730], for which, for the setting “Table 7”, the pIC50 is 7.38.

For `C=CC1CC1(NC(=O)C1CC(Oc2cc(OCCC)nc3cc(OC)ccc23)CN1C(=O)C(NC(=O)OC(C)(C)C)C(C)(C)C)C(=O)O` (stereo not shown) [compound 731], the pIC50 (Table 7) was 7.51. In turn, `C=CC1CC1(NC(=O)C1CC(Oc2cc(-c3csc(-c4csc(C)n4)n3)nc3cc(OC)ccc23)CN1C(=O)C(NC(=O)OC(C)(C)C)C(C)(C)C)C(=O)O` (stereo not shown) [compound 732] showed a pIC50 (Table 7) of 7.70.

Source of the values: US6534523B1, “Hepatitis C inhibitor tri-peptides” (Boehringer Ingelheim (Canada) Ltd., priority 1998, dated 2003).
